Data as given in the supplement of paper PMC10733146.

Tests used:
Assay in all cases: viability relative to DMSO control (fraction); higher = less drug effect (more viable cells)
Conditions in all cases: 48 h
[1] = test system: primary MCL patient cells (S041)
Method in brief: (§1)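 Compounds were pre-plated at five concentrations, one well each, in 384-well plates, and primary mononuclear tumour cells were plated on them at 4 × 10^4 cells per well. The cells, fresh or cryopreserved, had been Ficoll-isolated from blood or bone marrow or taken from processed lymph node. After 48 h at 37 °C and 5% CO2 in RPMI-1640 with penicillin/streptomycin, L-glutamine and human serum, viability was read as CellTiter-Glo luminescence relative to the median of 16 inner DMSO wells.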

[2] = test system: primary AML patient cells (S012)
Method in brief: as §1

[3] = test system: primary AML patient cells (S021)
Method in brief: as §1

[4] = test system: primary FL patient cells (S087)
Method in brief: as §1

[5] = test system: primary MCL patient cells (S053)
Method in brief: as §1

[6] = test system: primary AML patient cells (S037)
Method in brief: as §1

[7] = test system: primary T-PLL patient cells (S008)
Method in brief: as §1

[8] = test system: primary BL patient cells (S005)
Method in brief: as §1

[9] = test system: primary AML patient cells (S002)
Method in brief: as §1

[10] = test system: primary AML patient cells (S009)
Method in brief: as §1

[11] = test system: primary B-PLL patient cells (S016)
Method in brief: as §1

[12] = test system: primary MCL patient cells (S068)
Method in brief: as §1

[13] = test system: primary AML patient cells (S085)
Method in brief: as §1

[14] = test system: primary FL patient cells (S022)
Method in brief: as §1

[15] = test system: primary AML patient cells (S019)
Method in brief: as §1

[16] = test system: primary AML patient cells (S017)
Method in brief: as §1

[17] = test system: primary AML patient cells (S081)
Method in brief: as §1

[18] = test system: primary AML patient cells (S091)
Method in brief: as §1

[19] = test system: primary AML patient cells (S011)
Method in brief: as §1

[20] = test system: primary AML patient cells (S025)
Method in brief: as §1

Q: Oc1ccc(/C=C/c2cc(O)cc(O)c2)cc1 [Resveratrol] was tested. Which viability ([1]; 0.024 µM) did it give?
A: 0.948

Q: What about the viability ([1]; 0.12 µM) of the same compound?
A: 0.904

Q: What about the viability ([1]; 0.6 µM) of the same compound?
A: 0.904

Q: And the viability ([1]; 3 µM)?
A: 0.896

Q: What about the viability ([1]; 15 µM) of the same compound?
A: 0.77

Q: And the viability ([2]; 0.024 µM)?
A: 0.981

Q: What about the viability ([2]; 0.12 µM) of the same compound?
A: 1.02

Q: And the viability ([2]; 0.6 µM)?
A: 0.972

Q: And the viability ([2]; 3 µM)?
A: 0.957

Q: And the viability ([2]; 15 µM)?
A: 0.986

Q: And the viability ([3]; 0.024 µM)?
A: 0.84

Q: And the viability ([3]; 0.12 µM)?
A: 0.845

Q: And the viability ([3]; 0.6 µM)?
A: 0.772

Q: And the viability ([3]; 3 µM)?
A: 0.693

Q: And the viability ([3]; 15 µM)?
A: 0.55

Q: And the viability ([4]; 0.024 µM)?
A: 0.804

Q: And the viability ([4]; 0.12 µM)?
A: 0.857

Q: What about the viability ([4]; 0.6 µM) of the same compound?
A: 0.803

Q: What about the viability ([4]; 3 µM) of the same compound?
A: 0.877

Q: And the viability ([4]; 15 µM)?
A: 0.815

Q: And the viability ([5]; 0.024 µM)?
A: 0.75

Q: What about the viability ([5]; 0.12 µM) of the same compound?
A: 0.671

Q: What about the viability ([5]; 0.6 µM) of the same compound?
A: 0.595

Q: And the viability ([5]; 3 µM)?
A: 0.686

Q: What about the viability ([5]; 15 µM) of the same compound?
A: 0.772

Q: And the viability ([6]; 0.024 µM)?
A: 0.792

Q: And the viability ([6]; 0.12 µM)?
A: 0.994

Q: And the viability ([6]; 0.6 µM)?
A: 0.881

Q: And the viability ([6]; 3 µM)?
A: 0.84

Q: What about the viability ([6]; 15 µM) of the same compound?
A: 0.96

Q: And the viability ([7]; 0.024 µM)?
A: 1

Q: And the viability ([7]; 0.12 µM)?
A: 1.02

Q: What about the viability ([7]; 0.6 µM) of the same compound?
A: 0.915

Q: What about the viability ([7]; 3 µM) of the same compound?
A: 0.966

Q: And the viability ([7]; 15 µM)?
A: 0.897

Q: What about the viability ([8]; 0.024 µM) of the same compound?
A: 0.942

Q: What about the viability ([8]; 0.12 µM) of the same compound?
A: 0.954

Q: And the viability ([8]; 0.6 µM)?
A: 0.921

Q: And the viability ([8]; 3 µM)?
A: 0.9

Q: What about the viability ([8]; 15 µM) of the same compound?
A: 0.828

Q: And the viability ([9]; 0.024 µM)?
A: 0.873

Q: And the viability ([9]; 0.12 µM)?
A: 0.932

Q: And the viability ([9]; 0.6 µM)?
A: 0.894

Q: And the viability ([9]; 3 µM)?
A: 0.796

Q: What about the viability ([9]; 15 µM) of the same compound?
A: 0.604

Q: And the viability ([10]; 0.024 µM)?
A: 0.782

Q: And the viability ([10]; 0.12 µM)?
A: 0.815

Q: And the viability ([10]; 0.6 µM)?
A: 0.815

Q: What about the viability ([10]; 3 µM) of the same compound?
A: 0.789

Q: What about the viability ([10]; 15 µM) of the same compound?
A: 0.683

Q: And the viability ([11]; 0.024 µM)?
A: 0.852

Q: What about the viability ([11]; 0.12 µM) of the same compound?
A: 0.85

Q: And the viability ([11]; 0.6 µM)?
A: 0.864

Q: What about the viability ([11]; 3 µM) of the same compound?
A: 0.907

Q: What about the viability ([11]; 15 µM) of the same compound?
A: 0.787

Q: What about the viability ([12]; 0.024 µM) of the same compound?
A: 0.614

Q: And the viability ([12]; 0.12 µM)?
A: 0.63

Q: And the viability ([12]; 0.6 µM)?
A: 0.639

Q: And the viability ([12]; 3 µM)?
A: 0.7

Q: And the viability ([12]; 15 µM)?
A: 1.16

Q: And the viability ([13]; 0.024 µM)?
A: 0.783

Q: What about the viability ([13]; 0.12 µM) of the same compound?
A: 0.735

Q: What about the viability ([13]; 0.6 µM) of the same compound?
A: 0.819

Q: What about the viability ([13]; 3 µM) of the same compound?
A: 0.735

Q: What about the viability ([13]; 15 µM) of the same compound?
A: 0.658

Q: And the viability ([14]; 0.024 µM)?
A: 0.832

Q: What about the viability ([14]; 0.12 µM) of the same compound?
A: 0.823

Q: What about the viability ([14]; 0.6 µM) of the same compound?
A: 0.784

Q: What about the viability ([14]; 3 µM) of the same compound?
A: 0.847

Q: And the viability ([14]; 15 µM)?
A: 0.811

Q: What about the viability ([15]; 0.024 µM) of the same compound?
A: 0.879

Q: And the viability ([15]; 0.12 µM)?
A: 0.928

Q: And the viability ([15]; 0.6 µM)?
A: 1

Q: And the viability ([15]; 3 µM)?
A: 0.918

Q: What about the viability ([15]; 15 µM) of the same compound?
A: 0.924

Q: What about the viability ([16]; 0.024 µM) of the same compound?
A: 0.89

Q: And the viability ([16]; 0.12 µM)?
A: 0.933

Q: What about the viability ([16]; 0.6 µM) of the same compound?
A: 0.92

Q: What about the viability ([16]; 3 µM) of the same compound?
A: 0.883

Q: What about the viability ([16]; 15 µM) of the same compound?
A: 0.902

Q: What about the viability ([17]; 0.024 µM) of the same compound?
A: 0.814

Q: What about the viability ([17]; 0.12 µM) of the same compound?
A: 0.846

Q: What about the viability ([17]; 0.6 µM) of the same compound?
A: 0.806

Q: And the viability ([17]; 3 µM)?
A: 0.762

Q: What about the viability ([17]; 15 µM) of the same compound?
A: 0.794

Q: What about the viability ([18]; 0.024 µM) of the same compound?
A: 0.863

Q: And the viability ([18]; 0.12 µM)?
A: 0.832

Q: What about the viability ([18]; 0.6 µM) of the same compound?
A: 0.868

Q: What about the viability ([18]; 3 µM) of the same compound?
A: 0.708

Q: What about the viability ([18]; 15 µM) of the same compound?
A: 0.553

Q: What about the viability ([19]; 0.024 µM) of the same compound?
A: 0.808

Q: And the viability ([19]; 0.12 µM)?
A: 0.789

Q: And the viability ([19]; 0.6 µM)?
A: 0.757

Q: What about the viability ([19]; 3 µM) of the same compound?
A: 0.747

Q: And the viability ([19]; 15 µM)?
A: 0.682

Q: What about the viability ([20]; 0.024 µM) of the same compound?
A: 0.933

Q: What about the viability ([20]; 0.12 µM) of the same compound?
A: 0.921

Q: And the viability ([20]; 0.6 µM)?
A: 0.883

Q: And the viability ([20]; 3 µM)?
A: 0.891

Q: And the viability ([20]; 15 µM)?
A: 0.758
